≈ marks a conversion by molar mass, not a printed value. Read-outs that look alike come from different tables or passages of the source.

For orientation: mortality means the share of the test organisms that died. Usually LC50 stands for the concentration that kills 50% of the test population.

Type in all cases: in vivo
The test system of series [1] is Sitobion miscanthi (Fabricius). Kind of series: whole plant or invertebrate. The settings on record: for Measured mortality rate: single pesticide, 48 hours. As for the experimental part:
Test target: Sitobion miscanthi (Fabricius).
(§1) Preparation of the pesticide solution: according to different test requirements, the test samples were accurately weighed respectively with an electronic analytical balance. The technical pesticides were dissolved in acetone, and then diluted with 0.1% Tween 80 water into a series of pesticide solutions with a certain concentration gradient according to the experimental design dosage.
Experimental method: first, wheat seedlings with uniform and consistent Sitobion miscanthi (Fabricius) were selected, with about 30-40 insects on each pot of wheat. Then, they were evenly sprayed with the pesticide solution in the order from low dosage to high dosage according to the experimental design, with 2.5 mL for each pot and 3 replicates for each treatment. In addition, a blank control CK was set up.
The treated test materials were placed in an observation room, and the temperature, humidity and illumination of the observation room could be adjusted as needed. The number of dead and alive insects was investigated 48 hours later, and the corrected mortality rate was calculated using the Abbott's formula.
The synergism of the mixture was evaluated by the Bliss method. According to the concept of independent joint action he proposed, Bliss believes that the theoretical mortality rate P when insecticides are used in combination can be calculated by the following formula: […]
Pm is the measured mortality rate (%) of the target when the first active ingredient is at a concentration of m; and Pn is the measured mortality rate (%) of the target when the second active ingredient is used at a concentration of n.
If the actual mortality rate of the target after the two active ingredients are mixed at a certain concentration is greater than theoretical mortality rate P, it is determined that the two active ingredients have a synergistic effect when used in combination at the set concentration, and otherwise, they have an antagonistic effect.

In series [2] the test system is 3rd-instar larvae of Ostrinia furnacalis Guenee. Kind of series: Joint toxicity of I-72 + organophosphorus insecticides, corn stalk dipping, Example 21, Table 21. As to conditions: 48 h. The method, then: Test target: 3rd-instar larvae of Ostrinia furnacalis Guenee, a sensitive strain reared indoors.
as §1
Experimental method: first, fresh tender corn stalks cultivated in the greenhouse were selected, cut into small sections of 3 cm, and dipped in the prepared pesticide solution for 10 s in the order from low dosage to high dosage according to the experimental design. After natural air-drying in the shade, they were placed in a 9-cm-diameter Petri dish with filter paper, and uniform and healthy test insects were introduced, with 10 insects for each treatment and 3 replicates for each treatment. In addition, a blank control was set up.
(§2) The treated test materials were placed in an observation room, and the temperature, humidity and illumination of the observation room could be adjusted as needed. The number of dead and live insects was investigated 48 hours later. The corrected mortality rate was calculated using the Abbott's formula, and statistical analysis was performed with the DPS data processing software to obtain the toxicity regression equation, LC50 value and 95% confidence limit of each single test pesticide and each mixture of different ratios. Then, the co-toxicity coefficient of each ratio was calculated using the Sun Y-P method to evaluate the mixing effect (the same as in Example 1).

The test system of series [3] is Bemisia tabaci (Gennadius) nymphs. The series can be described thus: Joint toxicity of I-72 + organophosphorus insecticides, cotton leaf-disk spraying, Example 18, Table 18. The settings on record: 96 h. The method, then:
Test target: Bemisia tabaci (Gennadius) nymphs.
as §1
Experimental method: first, cotton leaves with neat and consistent Bemisia tabaci (Gennadius) nymphs were selected and made into leaf disks, with about 20 insects on each leaf disk. Then, they were evenly sprayed with the pesticide solution in the order from low dosage to high dosage according to the experimental design, with 1.5 mL for each leaf and 3 replicates for each treatment. In addition, a blank control was set up.
as §2, with “96” for “48”

The test system of another series is adult Phyllotreta spp. Kind of series: Joint toxicity of I-72 + organophosphorus insecticides, cabbage seedling spraying, Example 19, Table 19. As to conditions: 72 h. As for the experimental part: Test target: adult Phyllotreta spp., a sensitive strain reared indoors.
as §1
Experimental method: first, fresh cabbage seedlings cultivated in the greenhouse were selected and evenly sprayed with the pesticide solution in the order from low dosage to high dosage according to the experimental design. After natural air-drying in the shade, they were covered with a glass cover, and uniform and healthy test insects were introduced, with 10 insects for each treatment and 3 replicates for each treatment. In addition, a blank control was set up.
as §2, with “72” for “48”

Series [4] deals with 3rd-instar larvae of Chilo suppressalis (Walker). The series can be described thus: Joint toxicity of I-72 + organophosphorus insecticides, rice seedling dipping, Example 15, Table 15. The settings on record: 48 h. As for the experimental part: Test target: 3rd-instar larvae of Chilo suppressalis (Walker), a sensitive strain reared indoors.
as §1
Experimental method: first, tender and fresh rice seedlings were selected and dipped in the prepared pesticide solution for 10 s in the order from low dosage to high dosage according to the experimental design. After natural air-drying in the shade, they were cut into small sections of 5 cm, placed in a 9-cm-diameter Petri dish with filter paper, and uniform and healthy test insects were introduced, with 10 insects for each treatment and 3 replicates for each treatment. In addition, a blank control was set up.
as §2

The test system of series [5] is early 2nd-instar grubs of Holotrichia diomphalia Bates. The series can be described thus: whole plant or invertebrate. As for the experimental part: Test target: early 2nd-instar grubs of Holotrichia diomphalia Bates.
Test conditions: temperature: 24-26° C., humidity: RH 60%, and illumination: L:D=14:10
as §1
Experimental method: the activity against Holotrichia diomphalia Bates was determined by the insect-dipping method. The early 2nd-instar grubs of Holotrichia diomphalia Bates were selected. The target insects were dipped into the pesticide solution for 10 s and then taken out. Excess pesticide solution was absorbed with filter paper. […] A treatment without the pesticide was set as the blank control.
The test insects were transferred to a multi-well culture plate with fresh potato pieces and placed in an observation room, and the temperature, humidity and illumination of the observation room could be adjusted as needed. The number of dead and live insects was investigated 72 hours later. The corrected mortality rate was calculated using the Abbott's formula, and statistical analysis was performed with the DPS data processing software to obtain the toxicity regression equation and LC50 value of each single test pesticide and each mixture of different ratios.

The next series has as its system Rhizoctonia solani. The series can be described thus: Control efficacy against Rhizoctonia solani, rice seedling potting method, Example 89, Table 89. The settings on record: rice seedlings, foliar spraying. The method, then:
Control efficacy of the composition containing the compound I-72 against Rhizoctonia solani
Test target: Rhizoctonia solani, a sensitive strain cultured indoors.
The trial adopted the seedling potting method. Test crop: rice. Experimental method: the rice seedlings were cultured to the 2-leaf stage in the greenhouse of the experimental materials. Foliar spraying treatment was performed on the crop sprayer according to the designed dosage. The test target strain was inoculated 24 hours after the pesticide treatment. All the inoculated experimental materials were cultured in a phytotron. […] The disease grading and the calculation method of the control efficacy both referred to the agricultural industry standards of the People's Republic of China.

Series [6] relates to Aphis gossypii Glover nymphs. The series can be described thus: Joint toxicity of I-72 + organophosphorus insecticides, cotton leaf spraying, Example 17, Table 17. As to conditions: 48 h. The method, then:
Test target: Aphis gossypii Glover nymphs, a sensitive strain reared indoors.
as §1
Experimental method: first, cotton leaves with uniform and consistent Aphis gossypii were selected, with about 20 insects on each leaf. Then, they were evenly sprayed with the pesticide solution in the order from low dosage to high dosage according to the experimental design, with 1.5 mL for each leaf and 3 replicates for each treatment. In addition, a blank control was set up.
as §2

Series [7] has as its system Frankliniella occidentalis Pergande. The series can be described thus: Joint toxicity of I-72 + organophosphorus insecticides, leaf dipping, Example 14, Table 14. The settings on record: in Phaseolus vulgaris, foliar, 48 h.
Text: Test target: Frankliniella occidentalis Pergande, a sensitive strain reared indoors.
Experimental method: first, kidney bean leaves were selected and dipped in the prepared pesticide solution for 10 s in the order from low dosage to high dosage according to the experimental design. After natural air-drying in the shade, they were placed in a 9-cm-diameter Petri dish with filter paper, and uniform and healthy test insects were introduced, with about 20 insects for each treatment and 3 replicates for each treatment. In addition, a blank control was set up.
The subject of series [8] is 3rd-instar larvae of Hyphantria cunea. The series can be described thus: Joint toxicity of I-72 + organophosphorus insecticides, poplar leaf dipping, Example 20, Table 20. The settings on record: foliar, A = compound I-72, B = phoxim, poplar leaf dipping, 72 hours, read-out: LC50.
Text: Test target: 3rd-instar larvae of Hyphantria cunea, a sensitive strain reared indoors.
Experimental method: first, fresh and tender poplar leaves were selected, cut into small sections of 5 cm, and dipped in the prepared pesticide solution for 10 s in the order from low dosage to high dosage according to the experimental design. After natural air-drying in the shade, they were placed in a 9-cm-diameter Petri dish with filter paper, and uniform and healthy test insects were introduced, with 10 insects for each treatment and 3 replicates for each treatment. In addition, a blank control was set up.
The treated test materials were placed in an observation room, and the temperature, humidity and illumination of the observation room could be adjusted as needed. The number of dead and live insects was investigated 72 hours later.
The mark [9] stands for this setting: Sitobion miscanthi, in Triticum aestivum, 48 h, read-out: Measured mortality rate.

As to `C=C1C[C@]23C[C@@]1(O)CC[C@H]2[C@@]12C=C[C@H](O)[C@@](C)(C(=O)O1)[C@H]2[C@@H]3C(=O)O` [Gibberellic acid], in [1] (setting [9]), the mortality at 0.5 µg/mL was found to be 5.9%, the mortality at 10 µg/mL amounted to 10% and the mortality at 200 µg/mL came out at 12.5%.
As for `CC1=CC(=O)CC(C)(C)[C@@]1(O)/C=C/C(C)=C/C(=O)O` [S-abscisic acid], the Measured mortality rate in series [1] (1 mg/L) is on record as 7.9%; in [1] (10 mg/L), 8.3%; in series [1] (100 mg/L) it was 10.3%.
On to `COP(=O)(NC(C)=O)SC` (stereo not drawn) [acephate], for which the LC50 in series [2] stood at 15.5 µg/mL; in series [3] it was 34.9 µg/mL; in the series with adult Phyllotreta spp., 61.6 µg/mL; in series [4], 11.1 µg/mL.
In turn, `CO/C=C(/C(=O)OC)c1ccccc1Oc1cc(Oc2ccccc2C#N)ncn1` [azoxystrobin] showed an LC50 in series [5] (A = compound I-72, B = azoxystrobin, insect-dipping, 72 hours) of 473.5404 µg/mL (≈ 1170 µM).
Turning to `CCCCc1c(C)c2ccc(OCc3ccccc3/C(=C\OC)C(=O)OC)cc2oc1=O` [coumoxystrobin], the Control efficacy turned out to be 44.3% in the series on Rhizoctonia solani (5 mg/L, A = compound I-72, B = coumoxystrobin); 61.9% in the series on Rhizoctonia solani (10 mg/L, A = compound I-72, B = coumoxystrobin); 81.5% in the series on Rhizoctonia solani (20 mg/L, A = compound I-72, B = coumoxystrobin).
Take `CCOP(=S)(OCC)Oc1cc(C)nc(C(C)C)n1` [diazinon]: the LC50 is 20.5 µg/mL in [6] and 6.22 µg/mL in series [4] (3rd-instar larvae, rice seedling dipping, A = compound I-72, B = diazinon, read-out: LC50).
For `CC1COC(Cn2cncn2)(c2ccc(Oc3ccc(Cl)cc3)cc2Cl)O1` (stereo not drawn) [difenoconazole], in series [5] (Holotrichia diomphalia, 72 h), the LC50 came out at 500 µg/mL (≈ 1230 µM).
Regarding `CCOC(=O)CC(SP(=S)(OC)OC)C(=O)OCC` (stereo not drawn) [malathion], the LC50 in series [7] was 52.3 µg/mL.
Consider `CCOP(=S)(OCC)O/N=C(\C#N)c1ccccc1` [phoxim], for which the LC50 in [6] (nymphs, cotton leaf spraying, A = compound I-72, B = phoxim, read-out: LC50) was found to be 31.6 µg/mL; in [8], 10.1 µg/mL.
In the case of `CO/C=C(/C(=O)OC)c1ccccc1COc1cc(-c2ccc(Cl)cc2)nn1C` [pyraoxystrobin], the Control efficacy in the series with Rhizoctonia solani (5 mg/L, A = compound I-72, B = pyraoxystrobin) is given as 42.8%; with Rhizoctonia solani (10 mg/L, A = compound I-72, B = pyraoxystrobin), 71.5%; with Rhizoctonia solani (20 mg/L, A = compound I-72, B = pyraoxystrobin), 82.4%.
`CC(C)(C)C(O)(CCc1ccc(Cl)cc1)Cn1cncn1` (stereo not drawn) [tebuconazole] displayed an LC50 in series [5] (Holotrichia diomphalia, 72 h) of 477 µg/mL (≈ 1550 µM).

Source of the values: patent publication US20260198495A1, “BINARY INSECTICIDE COMPOSITION AND USE THEREOF” (SHENYANG SINOCHEM AGROCHEMICALS R & D CO., LTD., priority 2022, published 2026).
